Data: PubChem BioAssay AID602151 (Vanderbilt Specialized Chemistry Center, 2011)

Target: Phospholipase D1 (Homo sapiens) (UniProt Q13393)
Assay: PLD1 inhibitor potency in cells, dose response (AID 602151)
Details: cellular PLD1 activity assay

Chain of Phospholipase D1 (Homo sapiens) (Q13393 whole entry, looked up): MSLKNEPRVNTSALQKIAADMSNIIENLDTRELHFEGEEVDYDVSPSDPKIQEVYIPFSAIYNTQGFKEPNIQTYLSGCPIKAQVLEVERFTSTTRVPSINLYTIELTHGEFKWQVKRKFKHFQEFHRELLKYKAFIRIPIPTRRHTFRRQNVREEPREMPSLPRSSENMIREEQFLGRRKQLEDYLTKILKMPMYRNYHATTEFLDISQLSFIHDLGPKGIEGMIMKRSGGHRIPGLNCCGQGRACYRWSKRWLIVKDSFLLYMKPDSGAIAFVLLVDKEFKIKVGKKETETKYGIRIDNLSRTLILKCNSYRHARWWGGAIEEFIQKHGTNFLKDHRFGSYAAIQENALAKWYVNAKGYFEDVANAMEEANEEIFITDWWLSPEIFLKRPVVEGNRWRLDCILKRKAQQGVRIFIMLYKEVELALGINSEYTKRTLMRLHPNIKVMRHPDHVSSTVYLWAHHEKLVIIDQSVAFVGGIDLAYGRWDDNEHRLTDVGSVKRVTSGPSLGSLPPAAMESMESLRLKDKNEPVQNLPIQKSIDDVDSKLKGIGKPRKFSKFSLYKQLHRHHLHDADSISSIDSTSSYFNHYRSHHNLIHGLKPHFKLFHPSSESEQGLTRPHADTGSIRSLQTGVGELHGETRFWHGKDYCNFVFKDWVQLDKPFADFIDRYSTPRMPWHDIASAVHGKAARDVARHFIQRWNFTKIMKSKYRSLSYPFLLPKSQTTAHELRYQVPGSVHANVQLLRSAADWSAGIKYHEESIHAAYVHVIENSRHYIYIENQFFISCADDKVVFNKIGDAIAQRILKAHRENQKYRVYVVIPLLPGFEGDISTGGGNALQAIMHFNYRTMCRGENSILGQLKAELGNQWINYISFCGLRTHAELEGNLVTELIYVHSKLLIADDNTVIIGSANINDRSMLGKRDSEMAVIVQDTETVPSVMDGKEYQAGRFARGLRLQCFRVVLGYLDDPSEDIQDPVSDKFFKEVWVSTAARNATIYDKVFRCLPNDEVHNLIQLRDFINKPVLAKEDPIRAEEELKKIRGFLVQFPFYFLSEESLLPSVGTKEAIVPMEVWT
Chain of Phospholipase D1 (Homo sapiens) (Q13393 whole entry, looked up): as above

Structure (SMILES) | IC50 [nM]
O=C(NCCN1CCC2(CC1)C(=O)NCN2c1ccc(F)cc1)c1cnc2ccccc2c1 | 2000
O=C(NCCN1CCC2(CC1)C(=O)NCN2c1cccc(F)c1)c1cc2cc(F)ccc2[nH]1 | 210
O=C(NCCN1CCC2(CC1)C(=O)NCN2c1ccc(Br)cc1)c1ccc(F)cc1 | 10000
O=C(NCCN1CCC2(CC1)C(=O)NCN2c1cccc(Cl)c1)c1ccc2ccccc2c1 | 1200
COc1cc(C(=O)NCCN2CCC3(CC2)C(=O)NCN3c2ccccc2)ccc1N | 5900
O=C(NCCN1CCC2(CC1)C(=O)NCN2c1cccc(Cl)c1)c1cc2cc(F)ccc2[nH]1 | 250
O=C(NCCN1CCC2(CC1)C(=O)NCN2c1ccc(Cl)cc1)c1cc2cc(F)ccc2[nH]1 | 335
C[C@@H](CN1CCC2(CC1)C(=O)NCN2c1ccccc1)NC(=O)c1ccc(F)c(F)c1 | 150
O=C(NCCN1CCC2(CC1)C(=O)NCN2c1ccc(F)cc1)c1ccc2ccccc2c1 | 1700
O=C(NCCN1CCC2(CC1)C(=O)NCN2c1cccc(Cl)c1)c1ccc(F)cc1 | 3470
O=C(NCCN1CCC2(CC1)C(=O)NCN2c1cccc(Cl)c1)c1cnc2ccccc2c1 | 870
O=C(NCCN1CCC2(CC1)C(=O)NCN2c1ccc(Cl)cc1)c1cnc2ccccc2c1 | 3500
O=C(NCCN1CCC2(CC1)C(=O)NCN2c1ccc(Cl)cc1)c1ccc2ccccc2c1 | 2270
O=C(NCCN1CCC2(CC1)C(=O)NCN2c1ccccc1)c1cc2ccccc2s1 | 150
O=C(NCCN1CCC2(CC1)C(=O)NCN2c1ccc(Cl)cc1)c1ccc(F)cc1 | 5590
O=C(NCCN1CCC2(CC1)C(=O)NCN2c1ccc(F)cc1)c1ccc(F)cc1 | 14000
O=C(NCCN1CCC2(CC1)C(=O)NCN2c1ccc(F)c(F)c1)c1cnc2ccccc2c1 | 2060
O=C(NCCN1CCC2(CC1)C(=O)NCN2c1ccc(F)c(F)c1)c1cc2cc(F)ccc2[nH]1 | 390
O=C(C#Cc1ccccc1)NCCN1CCC2(CC1)C(=O)NCN2c1ccccc1 | 2130
O=C(NCCN1CCC2(CC1)C(=O)NCN2c1ccc(Br)cc1)c1cc2cc(F)ccc2[nH]1 | 2660
O=C(NCCN1CCC2(CC1)C(=O)NCN2c1cccc(F)c1)c1cnc2ccccc2c1 | 2500
O=C(NCCN1CCC2(CC1)C(=O)NCN2c1ccc(F)c(F)c1)c1ccc(F)cc1 | 5780
O=C(NCCN1CCC2(CC1)C(=O)NCN2c1ccc(Br)cc1)c1ccc2ccccc2c1 | 5900
O=C(NCCN1CCC2(CC1)C(=O)NCN2c1ccc(F)c(F)c1)c1ccc2ccccc2c1 | 2810
O=C(NCCN1CCC2(CC1)C(=O)NCN2c1ccccc1)c1cnc2ccccc2c1 | 1900
C[C@@H](CN1CCC2(CC1)C(=O)NCN2c1cccc(F)c1)NC(=O)c1ccc2ccccc2c1 | 10
O=C(NCCN1CCC2(CC1)C(=O)NCN2c1ccc(Br)cc1)c1cnc2ccccc2c1 | 2700
Cc1cccc(C(=O)N[C@@H](C)CN2CCC3(CC2)C(=O)NCN3c2ccccc2)c1 | 3400
O=C(NCCN1CCC2(CC1)C(=O)NCN2c1ccc(F)cc1)c1cc2cc(F)ccc2[nH]1 | 290
